{
  "source": "ChEMBL document CHEMBL3886864",
  "about": "“Heterocyclic resorcinol derivatives, preparation of same and cosmetic uses thereof” (2016)",
  "data": [
    {"molecular_target": "T1, Polyphenol oxidase 1 (Agaricus bisporus, UniProt Q00024)", "T1 sequence (Q00024 whole entry)": "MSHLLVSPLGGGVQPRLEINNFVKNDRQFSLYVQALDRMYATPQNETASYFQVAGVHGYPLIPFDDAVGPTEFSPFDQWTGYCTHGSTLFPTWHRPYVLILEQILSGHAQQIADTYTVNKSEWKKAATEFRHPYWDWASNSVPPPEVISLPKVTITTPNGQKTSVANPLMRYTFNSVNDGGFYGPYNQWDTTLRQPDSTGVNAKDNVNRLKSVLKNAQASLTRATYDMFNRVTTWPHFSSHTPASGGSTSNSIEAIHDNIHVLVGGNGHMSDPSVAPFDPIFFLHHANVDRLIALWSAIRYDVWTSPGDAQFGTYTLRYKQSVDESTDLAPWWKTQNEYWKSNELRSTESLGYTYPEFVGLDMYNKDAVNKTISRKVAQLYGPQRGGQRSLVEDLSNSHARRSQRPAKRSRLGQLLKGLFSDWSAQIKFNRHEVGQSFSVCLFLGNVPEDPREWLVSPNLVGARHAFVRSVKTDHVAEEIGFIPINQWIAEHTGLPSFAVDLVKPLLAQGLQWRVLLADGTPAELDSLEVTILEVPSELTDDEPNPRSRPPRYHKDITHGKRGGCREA", "assay": "Inhibition Assay: Reader: Synergy HT program: tyrosinase 280-490 kinetics: kinetics over 45 minutes, reading at t=10 minutes, Tests in transparent 96-well plates, Phosphate buffer (pH 6.8), Enzyme: mushroom tyrosinase (T-3824, Sigma), Substrate: L-tyrosine (T-3754, Sigma), Positive control: Kojic acid (KA) (60890, Fluka) (reference inhibitor). Reference Molecules for the Test: Kojic acid: …", "units": {"IC50": "nM"}, "values": [
      {"smiles": "CC(c1ccccn1)c1ccc(O)cc1O", "note": "(stereo unspecified)", "IC50": 400},
      {"smiles": "CC(c1ccsc1)c1ccc(O)cc1O", "note": "(stereo unspecified)", "IC50": 80},
      {"smiles": "CC(c1nccs1)c1ccc(O)cc1O", "note": "(stereo unspecified)", "IC50": 1500},
      {"smiles": "CC(c1cccs1)c1ccc(O)cc1O", "note": "(stereo unspecified)", "IC50": 90},
      {"smiles": "CC(c1cccnc1)c1ccc(O)cc1O", "note": "(stereo unspecified)", "IC50": 200},
      {"smiles": "CCCCc1ccc(O)cc1O", "note": "[RUCINOL]", "IC50": 1000}
    ]}
  ]
}
